Results as given in PubChem BioAssay (NCI).
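Five compound concentrations were applied to cells in 96-well plates for 48 hours; endpoints were derived by simple linear interpolation of the resulting dose-response curve. GI50: concentration for 50% inhibition of growth. TGI marks complete inhibition of growth.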

Assays:
Test in all cases: DTP human tumour cell line panel, 48 h
A498 renal = test system: A498 renal
COLO 205 colon = test system: COLO 205 colon
EKVX NSCLC = test system: EKVX NSCLC
NCI-H226 lung = test system: NCI-H226 lung
OVCAR-3 ovarian = test system: OVCAR-3 ovarian
SN12C renal = test system: SN12C renal
SNB-75 CNS = test system: SNB-75 CNS
SW-620 colon = test system: SW-620 colon
DU-145 prostate = test system: DU-145 prostate
MDA-MB-231 breast = test system: MDA-MB-231 breast

| Structure (SMILES) | TGI (A498 renal) [µM] | TGI (COLO 205 colon) [µM] | TGI (EKVX NSCLC) [µM] | TGI (NCI-H226 lung) [µM] | TGI (OVCAR-3 ovarian) [µM] | TGI (SN12C renal) [µM] | TGI (SNB-75 CNS) [µM] | TGI (SW-620 colon) [µM] | GI50 (A498 renal) [µM] | GI50 (COLO 205 colon) [µM] | GI50 (DU-145 prostate) [µM] | TGI (DU-145 prostate) [µM] | GI50 (EKVX NSCLC) [µM] | GI50 (MDA-MB-231 breast) [µM] | TGI (MDA-MB-231 breast) [µM] | GI50 (OVCAR-3 ovarian) [µM] | GI50 (SN12C renal) [µM] | GI50 (SNB-75 CNS) [µM] | GI50 (SW-620 colon) [µM] | GI50 (NCI-H226 lung) [µM] |
| --- | --- | --- | --- | --- | --- | --- | --- | --- | --- | --- | --- | --- | --- | --- | --- | --- | --- | --- | --- | --- |
| CN(C)NC(=S)NC12CC3CC(CC(C3)C1)C2 | > 100 | > 100 | > 100 | > 100 | > 100 | > 100 | > 100 | > 100 |  |  |  |  |  |  |  |  |  |  |  |  |
| CCCCCC/C=C/CCCCCCCc1cccc(O)c1C(=O)O |  | > 100 | > 100 |  | > 100 |  | > 100 | > 100 |  |  |  |  |  |  |  |  |  |  |  |  |
| C[n+]1ccc2[nH]c3ccccc3c2c1 | > 100 | > 100 | > 100 | > 100 | > 100 | > 100 | > 100 | > 100 |  |  |  |  |  |  |  |  |  |  |  |  |
| Cn1c(=O)c2[nH]cnc2n(CC(=O)O)c1=O | > 100 | > 100 | > 100 | > 100 | > 100 | > 100 | > 100 | > 100 |  |  |  |  |  |  |  |  |  |  |  |  |
| O=C(Nc1ccccc1)OCc1nc2c([nH]1)C(=O)C=CC2=O | 30.1 | 3.94 | 41 | 33.3 | 30.8 | 36.3 | 37.1 | 8.79 |  |  |  |  |  |  |  |  |  |  |  |  |
| COc1cc(CCC(=O)NS(=O)(=O)c2ccccc2)cc(OC)c1OC | > 100 | > 100 | > 100 | > 100 | > 100 | > 100 | > 100 | > 100 |  |  |  |  |  |  |  |  |  |  |  |  |
| ClC1=C(Cl)C(Cl)=C(Cl)C1=Cc1ccc(Cl)cc1Cl | 2.6 | 2.25 | 4.37 |  | 0.857 | 0.743 | 5.51 | 0.717 | 1.27 | 0.486 | 0.718 | 3.52 | 0.523 | 0.29 | 1.15 | 0.274 | 0.254 | 1.9 | 0.272 |  |
| C/C(CC(=O)Nc1ccc(NC(=O)/C(C)=N/NS(=O)(=O)c2ccc(C)cc2)cc1)=N\NS(=O)(=O)c1ccc(C)cc1 | > 100 | > 100 | > 100 | > 100 | > 100 | > 100 | > 100 | > 100 |  |  |  |  |  |  |  |  |  |  |  |  |
| COc1ccc2nc(C3=CN(C4OC(CO)C(O)C(O)C4O)C4C=CC=CC34)sc2c1 (stereo unspecified) |  | > 100 | > 100 | 79.3 | > 100 | 94.1 | > 100 | > 100 |  | 27.2 | 38.8 | > 100 | 39.7 | 23.9 | 61.6 | 87.5 | 29.7 | 55 | 41.9 | 21.4 |
| NC(=O)C12CCC1C1CCCCC12N1CCOCC1 (stereo unspecified) | > 100 |  | > 100 |  | > 100 | > 100 | > 100 | > 100 |  |  |  |  |  |  |  |  |  |  |  |  |
| CC(=O)NNc1nc(C)c(C(/C=C/c2ccc(Cl)cc2)=N/NC(=S)NN)s1 | > 100 | > 100 | > 100 | > 100 |  | > 100 | > 100 | > 100 |  |  |  |  |  |  |  |  |  |  |  |  |
| COc1cc(C(=C2SCCS2)c2nccc3cc(OC)c(OC)cc23)c([N+](=O)[O-])cc1OC | > 100 | > 100 | > 100 | > 100 | > 100 | > 100 | > 100 | > 100 |  |  |  |  |  |  |  |  |  |  |  |  |
| N#CNc1nc(C(=O)Nc2ccc(Cl)cc2)cc(-c2ccccc2)n1 | > 100 |  | > 100 | > 100 | > 100 | > 100 | > 100 | > 100 |  |  |  |  |  |  |  |  |  |  |  |  |
| CCc1ccccc1NC(=O)C1=C(C)NC(C)=C(C(=O)Nc2ccccc2CC)C1c1ccc(NC(C)=O)cc1 |  | > 100 | > 100 | > 100 | > 100 | > 100 | > 100 | > 100 |  |  |  |  |  |  |  |  |  |  |  |  |
| CC(=O)[CH-]C(=O)c1ccccc1.CC(=O)[CH-]C(=O)c1ccccc1.CC[O-].O=C1C=C([O-])C(=O)c2ccccc21.[Ti+4] | > 100 | > 100 | > 100 | > 100 | > 100 | > 100 | > 100 | > 100 | 81.1 | 26.9 |  |  | 25.9 |  |  | 42.6 | 97.9 | > 100 | 33 | 76 |
| CN(/C(=N\O)c1ccccc1)c1ccccc1 |  | > 100 | 74.3 | 60 | 59.2 | > 100 | 40.8 | > 100 |  |  |  |  |  |  |  |  |  |  |  |  |
| CN(Cc1ccccc1)c1nc(=[N+](C)C)ss1 | > 100 |  | > 100 | > 100 |  | > 100 | > 100 | > 100 |  |  |  |  |  |  |  |  |  |  |  |  |
| O/N=C1/C(=C/c2ccccc2)CCCC1C(NO)c1ccccc1 (stereo unspecified) | > 100 | > 100 | > 100 |  | > 100 | > 100 | > 100 | > 100 |  |  |  |  |  |  |  |  |  |  |  |  |
| COc1ccc(NCc2c(O)ccc3ccccc23)cc1 | > 100 | 94.3 | > 100 |  | > 100 | > 100 | > 100 | 49.6 |  |  |  | > 100 |  |  | > 100 |  |  |  |  |  |
| COc1ccc(Cn2c3c(c4c(O)cccc42)C(=O)c2ccccc2-3)cc1 |  | 92.3 | 27.7 | 32.8 | 28.7 | 29 |  | 36.9 |  | 25.9 | 12.5 | 24.9 | 12 | 12.8 | 25.4 | 14.3 | 15.6 |  | 12.6 | 13.4 |
| COC(=O)C(C(=O)C(=O)Nc1ccc(C)cc1C)c1nc2ccc([N+](=O)[O-])cc2[nH]c1=O (stereo unspecified) | > 100 | > 100 | > 100 | > 100 |  | > 100 | > 100 | > 100 |  |  |  |  |  |  |  |  |  |  |  |  |
| CCOC(CN(C)C(=O)OCC(Cl)(Cl)Cl)OCC |  | > 100 | > 100 | > 100 | > 100 | > 100 | > 100 | > 100 |  |  |  | > 100 |  |  | > 100 |  |  |  |  |  |
